Assays:
COX2 = target: T1, COX2 (Homo sapiens, UniProt P35354); test: COX inhibitor screening kit (Cayman Chemical), COX2; assay type: biochemical; settings: 100 μM compound
T1 construct: purchased Cayman Chemical, Ann Arbor, Mich; 560131
T1 sequence (P35354 18-604): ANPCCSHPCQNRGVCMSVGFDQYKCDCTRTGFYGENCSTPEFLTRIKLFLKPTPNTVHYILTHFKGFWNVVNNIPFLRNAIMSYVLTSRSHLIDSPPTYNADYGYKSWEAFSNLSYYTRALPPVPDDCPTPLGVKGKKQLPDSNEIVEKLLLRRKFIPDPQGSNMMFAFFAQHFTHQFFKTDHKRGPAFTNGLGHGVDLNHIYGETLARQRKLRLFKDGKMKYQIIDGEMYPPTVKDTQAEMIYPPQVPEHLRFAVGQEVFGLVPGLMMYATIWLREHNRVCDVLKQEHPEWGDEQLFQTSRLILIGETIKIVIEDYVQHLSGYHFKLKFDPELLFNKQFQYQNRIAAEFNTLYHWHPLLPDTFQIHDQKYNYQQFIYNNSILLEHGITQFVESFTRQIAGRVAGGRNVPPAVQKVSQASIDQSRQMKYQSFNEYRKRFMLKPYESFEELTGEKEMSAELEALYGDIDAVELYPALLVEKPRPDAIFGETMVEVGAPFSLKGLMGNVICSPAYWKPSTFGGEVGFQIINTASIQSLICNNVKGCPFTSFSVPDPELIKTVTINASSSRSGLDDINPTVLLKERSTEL
Description: (§1) The invention is based on the fact that the inventors have discovered that compounds of the formulae above lower Aβ42 Levels in in vitro APP processing assays. Furthermore, the compounds, in general, have negligible levels of COX inhibition and therefore are thought to essentially be devoid of the deleterious side-effects associated with COX inhibition. […] Preferred compounds of the formulae for use in the invention are those that have little or negligible COX1 and/or COX2 inhibition at 1 μM, more preferred are those that little or negligible COX1 and/or COX2 inhibition at 10 μM, and more preferred are those that little or negligible COX1 and/or COX2 inhibition at 100 μM compound. COX1 and COX2 inhibition can be determined with a COX inhibitor screening kit from e.g., Cayman Chemical, Ann Arbor, Mich. (Cat. #560131).
(§2) The invention is related to the inventors' discovery that compounds of Formula I-Va lower Aβ42 levels in APP processing assays. Furthermore, compounds of Formula I-Va, in general, have negligible levels of COX inhibition and therefore are thought to essentially be devoid of the deleterious side-effects associated with COX inhibition. […] Preferred compounds of Formula I-Va for use in the invention are those that have little or negligible COX1 and/or COX2 inhibition at 1 μM, more preferred are those that have little or negligible COX1 and/or COX2 inhibition at 10 μM, and more preferred are those that have little or negligible COX1 and/or COX2 inhibition at 100 μM compound. COX1 and COX2 inhibition can be determined with a COX inhibitor screening kit from e.g., Cayman Chemical, Ann Arbor, Mich. (Cat. #560131). […] Representative compounds found to lower Aβ42 levels using the previously described assay by at least 50% of DMSO control at concentrations ranging from 30-80 μM include compounds 1, 11, 21, 22, 24, 25, 26, 38, 43, 64, 67, 98, 100, and 102. Particularly preferred compounds of Formula I-Va for use in the methods and embodiments of the invention include those in Tables 2-7 below.

COX1 = target: T2, COX1 (Ovis aries, UniProt P05979); test: COX inhibitor screening kit (Cayman Chemical), COX1; assay type: biochemical; settings: 100 μM compound
T2 construct: purchased Cayman Chemical, Ann Arbor, Mich; 560131
T2 sequence (P05979 25-600): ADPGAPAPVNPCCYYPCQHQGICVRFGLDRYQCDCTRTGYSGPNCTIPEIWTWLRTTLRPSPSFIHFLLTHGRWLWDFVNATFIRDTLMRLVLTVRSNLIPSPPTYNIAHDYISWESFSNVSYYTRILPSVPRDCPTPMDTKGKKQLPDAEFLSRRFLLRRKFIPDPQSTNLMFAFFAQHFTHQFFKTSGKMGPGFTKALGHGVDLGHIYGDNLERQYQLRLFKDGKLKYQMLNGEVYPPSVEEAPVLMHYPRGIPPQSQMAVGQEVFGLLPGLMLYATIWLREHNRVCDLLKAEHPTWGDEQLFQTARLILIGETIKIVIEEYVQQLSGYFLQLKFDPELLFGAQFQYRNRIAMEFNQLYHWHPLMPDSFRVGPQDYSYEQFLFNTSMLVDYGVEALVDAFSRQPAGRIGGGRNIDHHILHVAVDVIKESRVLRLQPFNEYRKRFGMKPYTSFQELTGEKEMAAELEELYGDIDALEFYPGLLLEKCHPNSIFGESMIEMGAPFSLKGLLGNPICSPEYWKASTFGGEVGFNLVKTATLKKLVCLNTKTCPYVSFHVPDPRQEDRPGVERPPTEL
Description: as §1, §2

[1] = clinical trials; rofecoxib at 25 mg daily; cited from earlier work
[2] = patients with mild cognitive impairment; 4.5% for placebo; cited from earlier work

Row | inhibition of COX2 (COX2) | inhibition of COX1 (COX1) | Structure (SMILES) | efficacy for treating AD [1] | patients who developed AD [2]
1 | not significantly inhibit | not significantly inhibit | Cc1c(CC(=O)O)c2ccccc2n1C(=O)c1ccc(OC(F)(F)F)cc1 [Compound 10, 1-(4-trifluoromethoxybenzoyl)-2-methylindole-3-acetic acid] |  | 
2 | not significantly inhibit | not significantly inhibit | Cc1c(CC(=O)O)c2ccccc2n1Cc1ccc(Br)cc1 [Compound 19, 1-(4-bromobenzyl)-2-methylindole-3-acetic acid] |  | 
3 | not significantly inhibit | not significantly inhibit | O=C(O)c1cc([N+](=O)[O-])ccc1NCc1ccc(Cl)c(Cl)c1 [Compound 40, 2-(3,4-dichlorobenzylamino)-5-nitrobenzoic acid] |  | 
4 | not significantly inhibit | not significantly inhibit | O=C(O)c1cc([N+](=O)[O-])ccc1NCc1cccc(Cl)c1 [Compound 43, 2-(3-chlorobenzylamino)-5-nitrobenzoic acid] |  | 
5 | not significantly inhibit | not significantly inhibit | COc1ccc(-c2cccc(CC(=O)O)c2)cc1 [Compound 72, (4′-Methoxy-biphenyl-3-yl)-acetic acid] |  | 
6 | not significantly inhibit | not significantly inhibit | O=C(O)c1cc2cc(OCc3ccccc3)ccc2n1Cc1ccc(C(F)(F)F)cc1 [Compound 97, 5-benzyloxy-1-(4-trifluoromethylbenzyl)-1H-indole-2-carboxylic acid] |  | 
7 |  |  | COc1ccc2cc([C@H](C)C(=O)O)ccc2c1 [Naproxen] | failed to show efficacy | 
8 |  |  | CS(=O)(=O)c1ccc(C2=C(c3ccccc3)C(=O)OC2)cc1 [rofecoxib] | failed to show efficacy | 6.4%
